As a reminder, the IC50 is the concentration at which inhibition is half-maximal.

Data on 17 compounds can be found in ChEMBL document CHEMBL1909046, “DrugMatrix in vitro pharmacology data”.

The target in test [1] is T1, Neuropeptide Y receptor type 2 (Homo sapiens, UniProt P49146). Further: in other assays of this panel Not Active means under 50% inhibition at 10 µM.
T1 sequence (P49146 whole entry): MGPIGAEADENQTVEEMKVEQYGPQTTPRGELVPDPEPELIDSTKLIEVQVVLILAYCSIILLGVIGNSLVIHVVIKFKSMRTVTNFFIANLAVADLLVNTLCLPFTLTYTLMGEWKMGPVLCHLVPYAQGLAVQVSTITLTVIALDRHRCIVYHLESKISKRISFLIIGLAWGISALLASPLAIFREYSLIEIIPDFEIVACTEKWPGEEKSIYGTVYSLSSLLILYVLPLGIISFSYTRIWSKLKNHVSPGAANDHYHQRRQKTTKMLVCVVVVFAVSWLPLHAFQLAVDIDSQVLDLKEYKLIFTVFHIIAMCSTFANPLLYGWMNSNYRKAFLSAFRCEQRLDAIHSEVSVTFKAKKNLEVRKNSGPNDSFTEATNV
Type of test: cell membranes, Membrane. Conditions: kan-ts.

The next test has as its target Carbonic anhydrase 2 (Homo sapiens, UniProt P00918). The test is described as follows: DRUGMATRIX: Carbonic Anhydrase II enzyme inhibition (substrate: 4-Nitrophenyl acetate (4-NPA)). Type of test: tissue-based, Erythrocyte. The conditions noted are these: erythrocyte; Not Active = under 50% inhibition at 10 µM.
Test [2] has as its target T2, Amine oxidase [flavin-containing] A (Homo sapiens, UniProt P21397).
T2 sequence (P21397 whole entry): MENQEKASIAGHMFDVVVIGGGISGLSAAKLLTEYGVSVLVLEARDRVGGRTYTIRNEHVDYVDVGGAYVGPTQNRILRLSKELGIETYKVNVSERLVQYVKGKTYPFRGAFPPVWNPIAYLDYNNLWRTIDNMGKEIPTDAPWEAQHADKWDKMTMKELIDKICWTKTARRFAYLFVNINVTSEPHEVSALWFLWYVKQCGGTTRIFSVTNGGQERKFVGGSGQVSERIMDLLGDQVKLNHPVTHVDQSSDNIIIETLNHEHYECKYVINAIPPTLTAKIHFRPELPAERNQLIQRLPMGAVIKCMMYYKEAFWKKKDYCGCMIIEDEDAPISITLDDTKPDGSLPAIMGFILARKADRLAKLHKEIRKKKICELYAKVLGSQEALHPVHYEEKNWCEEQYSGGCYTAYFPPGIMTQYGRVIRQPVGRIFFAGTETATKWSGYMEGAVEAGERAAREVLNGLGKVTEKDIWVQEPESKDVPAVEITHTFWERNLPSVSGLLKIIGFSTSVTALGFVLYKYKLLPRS
Kind of test: DRUGMATRIX: Monoamine Oxidase MAO-A enzyme inhibition (substrate: Kynuramine). Further details: species or system BTI-TN-5B1-4. The conditions noted are these: bti-tn-5b1-4; Not Active = under 50% inhibition at 10 µM.

Test [3] deals with T3, Cysteinyl leukotriene receptor 1 (Homo sapiens, UniProt Q9Y271).
T3 sequence (Q9Y271 whole entry): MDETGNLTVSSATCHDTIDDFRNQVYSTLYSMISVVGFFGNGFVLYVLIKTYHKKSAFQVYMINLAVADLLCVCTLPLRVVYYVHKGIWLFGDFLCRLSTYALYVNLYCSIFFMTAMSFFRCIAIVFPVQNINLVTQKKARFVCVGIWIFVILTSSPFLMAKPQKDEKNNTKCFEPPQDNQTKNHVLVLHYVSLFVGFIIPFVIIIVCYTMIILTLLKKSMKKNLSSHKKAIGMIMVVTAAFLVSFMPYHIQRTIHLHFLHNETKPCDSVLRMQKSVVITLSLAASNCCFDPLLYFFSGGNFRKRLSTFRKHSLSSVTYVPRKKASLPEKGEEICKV
Type of test: cell membranes, CHO-K1, Membrane. Conditions: cho-k1.

For test [4], the target named is C-C chemokine receptor type 5 (Homo sapiens, UniProt P51681). Type of test: cell membranes, HEK293, Membrane. The conditions noted are these: hek293. Further: in other assays of this panel Not Active means under 50% inhibition at 10 µM.
Another test deals with Insulin receptor (Rattus norvegicus, UniProt P15127). Type of test: cell membranes, Wistar, Liver, Membrane.
Test [5] in a line: DRUGMATRIX: Leukotriene, BLT (LTB4) radioligand binding (ligand: [3H]LTB4). Type of test: cell membranes, Membrane. Conditions: u-937; Not Active = under 50% inhibition at 10 µM.
The target in test [6] is Aldo-keto reductase family 1 member B1 (Rattus norvegicus, UniProt P07943). The test is described as follows: biochemical. Type of test: tissue-based, Lens of camera-type eye.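 Further: inhibition of aldose reductase enzyme activity, measured with DL-glyceraldehyde as the substrate; in other assays of this panel Not Active means under 50% inhibition at 10 µM.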

The structures appear in SMILES notation.

C-C chemokine receptor type 5, sequence (P51681 whole entry): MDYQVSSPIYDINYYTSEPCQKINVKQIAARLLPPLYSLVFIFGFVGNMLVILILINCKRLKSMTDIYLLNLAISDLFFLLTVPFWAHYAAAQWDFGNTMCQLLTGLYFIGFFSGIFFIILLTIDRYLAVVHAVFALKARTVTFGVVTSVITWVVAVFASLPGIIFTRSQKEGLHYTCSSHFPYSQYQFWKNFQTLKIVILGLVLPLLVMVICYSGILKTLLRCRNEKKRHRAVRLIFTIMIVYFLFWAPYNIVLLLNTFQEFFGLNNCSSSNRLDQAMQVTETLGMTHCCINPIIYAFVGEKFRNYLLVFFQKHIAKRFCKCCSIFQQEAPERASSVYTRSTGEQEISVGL
Insulin receptor, sequence (P15127 27-759 limits assumed): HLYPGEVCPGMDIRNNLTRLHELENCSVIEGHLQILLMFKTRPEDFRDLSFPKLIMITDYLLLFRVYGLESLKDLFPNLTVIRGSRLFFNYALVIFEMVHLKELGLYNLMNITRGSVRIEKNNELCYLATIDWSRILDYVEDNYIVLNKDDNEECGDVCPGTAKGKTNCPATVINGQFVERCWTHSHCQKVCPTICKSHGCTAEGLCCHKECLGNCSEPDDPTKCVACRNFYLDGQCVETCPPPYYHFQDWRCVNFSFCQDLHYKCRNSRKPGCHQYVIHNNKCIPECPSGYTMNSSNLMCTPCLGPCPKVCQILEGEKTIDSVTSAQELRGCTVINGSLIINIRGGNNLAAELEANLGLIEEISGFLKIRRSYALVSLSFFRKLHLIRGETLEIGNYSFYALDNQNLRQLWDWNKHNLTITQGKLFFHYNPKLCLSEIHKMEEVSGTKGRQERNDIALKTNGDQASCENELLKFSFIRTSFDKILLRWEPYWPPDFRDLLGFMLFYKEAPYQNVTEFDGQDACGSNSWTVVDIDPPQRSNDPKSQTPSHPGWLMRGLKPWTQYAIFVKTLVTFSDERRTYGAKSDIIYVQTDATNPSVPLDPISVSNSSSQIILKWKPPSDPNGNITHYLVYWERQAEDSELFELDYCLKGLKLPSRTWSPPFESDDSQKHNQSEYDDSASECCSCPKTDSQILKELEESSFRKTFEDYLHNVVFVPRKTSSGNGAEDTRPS
Insulin receptor, sequence (P15127 764-1383 limits assumed): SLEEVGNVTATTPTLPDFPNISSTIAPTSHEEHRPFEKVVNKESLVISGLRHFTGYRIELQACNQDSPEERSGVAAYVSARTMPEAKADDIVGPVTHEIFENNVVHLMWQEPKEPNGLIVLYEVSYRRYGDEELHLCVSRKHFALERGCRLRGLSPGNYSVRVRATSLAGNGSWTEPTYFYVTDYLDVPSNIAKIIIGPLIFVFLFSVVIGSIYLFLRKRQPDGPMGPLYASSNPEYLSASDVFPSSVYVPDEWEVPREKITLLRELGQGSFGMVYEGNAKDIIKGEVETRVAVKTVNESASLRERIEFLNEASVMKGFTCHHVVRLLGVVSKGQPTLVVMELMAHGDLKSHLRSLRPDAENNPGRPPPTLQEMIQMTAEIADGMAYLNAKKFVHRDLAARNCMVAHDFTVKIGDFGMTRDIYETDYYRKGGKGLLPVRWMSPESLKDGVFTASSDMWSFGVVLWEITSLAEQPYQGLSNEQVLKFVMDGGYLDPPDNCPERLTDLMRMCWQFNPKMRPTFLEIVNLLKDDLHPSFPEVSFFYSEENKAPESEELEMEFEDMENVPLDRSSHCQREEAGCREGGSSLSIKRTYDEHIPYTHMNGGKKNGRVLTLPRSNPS

On to `CC(C)Cc1ccc(C(C)C(=O)O)cc1` (stereo not drawn) [IBUPROFEN], for which the IC50 result (in test [1]; against Carbonic anhydrase 2; in test [2]; in test [3]; in test [4]; at Insulin receptor) was “Not Active” throughout. For the same compound, the IC50 result in test [5] and in test [6] was “Not Active” in each case. Also, the Ki entry in test [5] is listed as “Not Active”.

Regarding `COc1ccc2c(c1)c(CC(=O)O)c(C)n2C(=O)c1ccc(Cl)cc1` [INDOMETHACIN], the IC50 result (in test [1]; on Carbonic anhydrase 2; in test [2]; in test [3]; in test [4]; on Insulin receptor) was “Not Active” each time. For the same compound, the IC50 result is “Not Active” in test [5] and 3.63 µM in test [6] (read-out: IC50). For the same compound, the Ki result in test [5] is “Not Active”.

Take `CCc1c2c(nc3ccc(OC(=O)N4CCC(N5CCCCC5)CC4)cc13)-c1cc3c(c(=O)n1C2)COC(=O)[C@]3(O)CC` [IRINOTECAN]: the concentration for half-maximal inhibition (IC50) entry (in test [1]; on Carbonic anhydrase 2; in test [2]; in test [3]; in test [4]; at Insulin receptor) was “Not Active” throughout. Moreover, the IC50 entry in test [5] and in test [6] was “Not Active” in each case. The Ki entry in test [5] is on record as “Not Active”.

`CC(C(=O)O)c1cccc(C(=O)c2ccccc2)c1` (stereo not drawn) [KETOPROFEN]: the 50% inhibitory concentration (IC50) result (in test [1]; against Carbonic anhydrase 2; in test [2]; in test [3]; in test [4]; against Insulin receptor) was “Not Active” each time. In addition, the IC50 result in test [5] and in test [6] was “Not Active” throughout. The Ki entry in test [5] is “Not Active”.

Turning to `Nc1ccn([C@@H]2CS[C@H](CO)O2)c(=O)n1` [LAMIVUDINE], the 50% inhibitory concentration (IC50) result (in test [1]; against Carbonic anhydrase 2; in test [2]; in test [3]; in test [4]; at Insulin receptor) was “Not Active” throughout. The half-inhibitory concentration (IC50) result in test [5] and in test [6] was “Not Active” each time. Further, the Ki result in test [5] is “Not Active”.

In the case of `O=S(=O)([O-])CCS.[Na+]` [MESNA], the IC50 result (in test [1]; against Carbonic anhydrase 2; in test [2]; in test [3]; in test [4]; at Insulin receptor) was “Not Active” each time. Moreover, the IC50 entry in test [5] and in test [6] was “Not Active” throughout. In addition, in test [5], the Ki entry is “Not Active”.

Turning to `C#C[C@]1(O)CC[C@H]2[C@@H]3CCc4cc(OC)ccc4[C@H]3CC[C@@]21C` [MESTRANOL], the 50% inhibitory concentration (IC50) entry (in test [1]; at Carbonic anhydrase 2; in test [2]; in test [3]; in test [4]; on Insulin receptor) was “Not Active” throughout. Moreover, the IC50 result in test [5] and in test [6] was “Not Active” each time. Also, the Ki entry in test [5] is “Not Active”.

`CC(=O)Nc1cccc(O)c1` [METACETAMOL]: the 50% inhibitory concentration (IC50) result (in test [1]; against Carbonic anhydrase 2; in test [2]; in test [3]; in test [4]; against Insulin receptor) was “Not Active” in each case. Besides, the half-inhibitory concentration (IC50) entry in test [5] and in test [6] was “Not Active” throughout. For the same compound, the Ki entry in test [5] is reported as “Not Active”.

In the case of `Cc1ncc([N+](=O)[O-])n1CCO` [METRONIDAZOLE], the IC50 result (in test [1]; against Carbonic anhydrase 2; in test [2]; in test [3]; in test [4]; against Insulin receptor) was “Not Active” throughout. Also, the IC50 result in test [5] and in test [6] was “Not Active” in each case. For the same compound, the Ki entry in test [5] was “Not Active”.

Regarding `CC(C)(C(=O)c1cccnc1)c1cccnc1` [METYRAPONE], the IC50 entry (in test [1]; against Carbonic anhydrase 2; in test [2]; in test [3]; in test [4]; at Insulin receptor) was “Not Active” throughout. In addition, the half-inhibitory concentration (IC50) entry in test [5] and in test [6] was “Not Active” in each case. In addition, the Ki result in test [5] is “Not Active”.

In the case of `Oc1ccc(OCc2ccccc2)cc1` [MONOBENZONE], the half-maximal inhibitory concentration (IC50) entry (in test [1]; against Carbonic anhydrase 2; in test [2]; in test [3]; in test [4]; on Insulin receptor) was “Not Active” throughout. The IC50 entry in test [5] and in test [6] was “Not Active” in each case. The Ki entry in test [5] is on record as “Not Active”.

Turning to `CC(C)(Oc1ccc(C2CCCc3ccccc32)cc1)C(=O)O` (stereo not drawn) [NAFENOPIN], the IC50 result (in test [1]; on Carbonic anhydrase 2; in test [2]; in test [3]; in test [4]; against Insulin receptor) was “Not Active” throughout. Further, the IC50 entry in test [5] and in test [6] was “Not Active” throughout. For the same compound, in test [5], the Ki entry was “Not Active”.

As for `COc1ccc2cc([C@H](C)C(=O)O)ccc2c1` [NAPROXEN], the IC50 result (in test [1]; at Carbonic anhydrase 2; in test [2]; in test [3]; in test [4]; against Insulin receptor) was “Not Active” each time. For the same compound, the half-maximal inhibitory concentration (IC50) entry in test [5] and in test [6] was “Not Active” in each case. The Ki result in test [5] is reported as “Not Active”.

As to `CC(C)[C@H]1CC[C@H](C(=O)N[C@H](Cc2ccccc2)C(=O)O)CC1` [NATEGLINIDE], the IC50 result (in test [1]; against Carbonic anhydrase 2; in test [2]; in test [3]; in test [4]; at Insulin receptor) was “Not Active” throughout. The 50% inhibitory concentration (IC50) result in test [5] and in test [6] was “Not Active” each time. For the same compound, the Ki entry in test [5] is on record as “Not Active”.

With `CCN[C@@H]1C[C@H](N)[C@@H](O[C@H]2OC(CN)=CC[C@H]2N)[C@H](O)[C@H]1O[C@H]1OC[C@](C)(O)[C@H](NC)[C@H]1O` [NETILMICIN], the IC50 result (in test [1]; at Carbonic anhydrase 2; in test [2]; in test [3]; in test [4]; on Insulin receptor) was “Not Active” each time. For the same compound, the half-inhibitory concentration (IC50) result in test [5] and in test [6] was “Not Active” each time. In addition, in test [5], the Ki entry was “Not Active”.

Regarding `COC(=O)C1=C(C)NC(C)=C(C(=O)OCC(C)C)C1c1ccccc1[N+](=O)[O-]` (stereo not drawn) [NISOLDIPINE], the IC50 entry (in test [1]; against Carbonic anhydrase 2; in test [2]; in test [3]; in test [4]; at Insulin receptor) was “Not Active” in each case. Besides, the 50% inhibitory concentration (IC50) result in test [5] and in test [6] was “Not Active” each time. Also, the Ki entry in test [5] was “Not Active”.

With `CCOC(=O)C1=C(C)NC(C)=C(C(=O)OC)C1c1cccc([N+](=O)[O-])c1` (stereo not drawn) [NITRENDIPINE], the half-maximal inhibitory concentration (IC50) entry (in test [1]; on Carbonic anhydrase 2; in test [2]; in test [3]; in test [4]; against Insulin receptor) was “Not Active” each time. Also, the 50% inhibitory concentration (IC50) entry in test [5] and in test [6] was “Not Active” in each case. Further, in test [5], the Ki result is “Not Active”.
